The source of these data is patent US6046218A, “Pyridine derivative and medicament containing the same as an effective ingredient” (SS Pharmaceutical Co., Ltd., priority 1996, dated 2000).

Where a name gives a salt, the structure may show the parent alone.

One experiment concerns IgG2a production. The experiment can be described thus: Test 4 (comparison): inhibition of IgG2a production. The format is in vivo, Balb/c mouse. As to conditions: 100 mg/kg orally once a day; for inhibition at 100 mg/kg: Mus musculus, po, Day 1 to Day 10, spleen cells, DNP-BSA 5 μg/ml, 24 hours, read-out: Inhibition rate of IgG2a production; for effects on the production of IgG2a: in words. Here is the method:
(§1) Test 4: Test on the inhibition of IgE production
(§2) To a Balb/c mouse, the DNP-labeled ascaris antigen (5 μg) and Alum (1 mg) were intraperitoneally administered on Day 1 and Day 6 to sensitize the mouse with the antibody. From Day 1 to Day 10, a medicament was orally administered at a dose of 100 mg/kg once a day. On Day 11, the mouse was subjected to splenectomy and the spleen so obtained was untangled into its cells. To 5×10^7 cells/ml of the spleen cells so obtained, DNP-BSA (5 μg/ml) was added, followed by incubation at 37° C. for 24 hours. After incubation, 100 μl of the supernatant were collected and subjected to the measurement an IgE measuring kit (Yamasa Co., Ltd.). In order to determine IgG1, IgG2a and IgM, the absorbance of the incubated supernatant was measured by the EIA method and provided for comparison. The inhibition rate of IgE production was calculated according to the below-described formula. Inhibition rates of the IgG1, IgG2a and IgM production were similarly calculated, respectively. [formula]

The next experiment deals with IgM production. The experiment is described as follows: Test 4 (comparison): inhibition of IgM production. The format is in vivo, Balb/c mouse. As to conditions: 100 mg/kg orally once a day; for inhibition at 100 mg/kg: Mus musculus, po, Day 1 to Day 10, spleen cells, DNP-BSA 5 μg/ml, 24 hours, read-out: Inhibition rate of IgM production; for effects on the production of IgM: in words. As for the experimental part: as §1, §2

The test system of a further experiment is IL-4 production. The experiment can be described thus: Test 2: inhibition of IL-4 production in human T-cell strain ATL-16T(-) stimulated with PMA (Bio Source EIA). The format is cell-based. As to conditions: ATL-16T(-) 5×10^5 cells/0.5 ml/well, 20 nM PMA, 48 hours, read-out: Inhibition rate of IL-4 production; for inhibition at 10 µM: 10^-5 M; for inhibition at 1 µM: 10^-6 M; for inhibition at 0.1 µM: 10^-7 M; for inhibition at 0.01 µM: 10^-8 M. An outline of the steps: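 ATL-16T(-) cells at 5×10^5 cells/0.5 ml/well (n=3) stimulated with 20 nM PMA alongside compound, incubated 48 h at 37 °C, 5% CO2. Supernatant IL-4 measured by EIA and inhibition rate calculated.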

The next experiment concerns IgE production. The experiment is described as follows: Test 4: inhibition of IgE production by spleen cells of orally treated sensitized mice. The format is in vivo, Balb/c mouse. As to conditions: Mus musculus, po, 100 mg/kg orally once a day, Day 1 to Day 10, DNP-BSA 5 μg/ml, 24 hours, read-out: Inhibition rate of IgE production. As for the experimental part: as §1, §2

For a further experiment, the system named is IL-5 production. The experiment is described as follows: Test 3: inhibition of IL-5 production in human PBMC stimulated with ConA. The format is cell-based. As to conditions: 10^-6 M, 10 μg/ml ConA, 48 hours, read-out: Inhibition rate of IL-5 production. In a few lines: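 Human PBMC from a normal volunteer, 1×10^6 cells/ml in AIM-V, stimulated with 10 μg/ml ConA alongside compound and incubated 48 h at 37 °C, 5% CO2. Supernatant IL-5 quantified by EIA; inhibition rate calculated from a formula.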

A further experiment deals with IgG1 production. The experiment is described as follows: Test 4 (comparison): inhibition of IgG1 production. The format is in vivo, Balb/c mouse. As to conditions: 100 mg/kg orally once a day; for inhibition at 100 mg/kg: Mus musculus, po, Day 1 to Day 10, spleen cells, DNP-BSA 5 μg/ml, 24 hours, read-out: Inhibition rate of IgG1 production; for effects on the production of IgG1: in words. Here is the method: as §1, §2

In general, inhibition refers to the relative decrease from the control value, in per cent. As for `CCOC(=O)CCCCCCCOc1cc(/C=C/C(=O)c2ccccc2OC)ncc1OC` [Ex. 98, Ethyl 8-[5-methoxy-2-(3-(2-methoxyphenyl)-3-oxo-1-propenyl)-4-pyridyloxy]octanoate hydrochloride], in the experiment on IgG2a production, the inhibition at 100 mg/kg was -4.1% and the “effects on the production of IgG2a” value is reported as “No effects were observed”. Further, in the experiment on IgM production, the inhibition at 100 mg/kg was -2.6% and the “effects on the production of IgM” value is given as “No effects were observed”. In the experiment with IL-4 production, the inhibition at 10 µM came out at 100%, the inhibition at 1 µM came out at 85.6%, the inhibition at 0.1 µM was 76.1% and the inhibition at 0.01 µM worked out at 75.7%. Moreover, the inhibition at 100 mg/kg with IgE production is 50.1%. The inhibition at 1 µM in the experiment on IL-5 production is 96.8%. In addition, in the experiment on IgG1 production, the inhibition at 100 mg/kg stood at 5.4% and the “effects on the production of IgG1” value is listed as “No effects were observed”.
Take `COc1cnc(/C=C/C(=O)c2ccccc2OC)cc1OCCCCCC(=O)O` [Ex. 105, 6-[5-Methoxy-2-(3-(2-methoxyphenyl)-3-oxo-1-propenyl)-4-pyridyloxy]hexanoicacid]: in the experiment on IgG2a production, the inhibition at 100 mg/kg was -1.8% and the “effects on the production of IgG2a” value is recorded as “No effects were observed”. Moreover, in the experiment on IgM production, the inhibition at 100 mg/kg was 0.5% and the “effects on the production of IgM” value is listed as “No effects were observed”. Further, in the experiment on IL-4 production, the inhibition at 10 µM came out at 101%, the inhibition at 1 µM is 70.9%, the inhibition at 0.1 µM worked out at 69.6% and the inhibition at 0.01 µM worked out at 68.7%. The inhibition at 100 mg/kg in the experiment with IgE production turned out to be 47.7%. Moreover, in the experiment on IL-5 production, the inhibition at 1 µM amounted to 71%. Moreover, in the experiment on IgG1 production, the inhibition at 100 mg/kg is -4.2% and the “effects on the production of IgG1” value is recorded as “No effects were observed”.
In the case of `COc1cnc(/C=C/C(=O)C2CCCCC2)cc1OCCCC(=O)O` [Ex. 106, 4-[2-(3-Cyclohexyl-3-oxo-1-propenyl)-5-methoxy-4-pyridyloxy]butanoic acid], the inhibition at 100 mg/kg is 2.1% with IgG2a production, -7.3% in the experiment on IgM production, 28.8% in the experiment with IgE production and -0.8% in the experiment with IgG1 production. Further, in the experiment with IL-4 production, the inhibition at 10 µM came to 75.6%. The inhibition at 1 µM came to 31.7% in the experiment on IL-4 production and 78.7% in the experiment on IL-5 production. The inhibition at 0.1 µM with IL-4 production is 9.4%. Moreover, the inhibition at 0.01 µM with IL-4 production is 8.6%.
